Measured values from BigSolDB 2.1.

COc1cc([N+](=O)[O-])ccc1N
solubility (mole fraction)
Conditions	278.15 K	283.15 K	288.15 K	293.15 K	298.15 K	303.15 K	308.15 K	313.15 K	318.15 K	323.15 K
in isopropanol	0.00186	0.00221	0.00265	0.00322	0.00396	0.00492	0.00595	0.00719	0.00855	0.0101
in water	4.03e-06	5.68e-06	7.36e-06	9.49e-06	1.27e-05	1.74e-05	2.36e-05	3.15e-05	4.23e-05	5.49e-05
